Our source for the pest or weed control values is patent US12077503B2, “Substituted cyclic amides and their use as herbicides” (FMC CORPORATION, priority 2015, dated 2024).

Holding throughout (experiment): Test A preemergence
Holding throughout (type): in vivo

For assay [1], the system named is barnyardgrass (Echinochloa crus-galli). The settings on record: Echinochloa crus-galli, pre-emergence, 240 h; for pest or weed control at 125 g/ha: 125 g ai/ha, preemergence, visual rating after approx. 10 d, 0 to 100 scale where 0 is no effect and 100 is complete control; for pest or weed control at 125 g/ha / pest or weed control at 31 g/ha: read-out: Plant response rating, Barnyardgrass; for pest or weed control at 31 g/ha: 31 g ai/ha, 0 to 100 scale (0 no effect, 100 complete control). The method, boiled down:
(§1)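 Treatment is preemergence as a directed soil spray after planting, or postemergence at the one- to two-leaf stage, with test chemical in a non-phytotoxic solvent mixture plus surfactant. Plants stay in the greenhouse about 10 d before visual injury scoring on a 0 to 100 scale versus untreated controls.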

Assay [2] relates to Kochia (Kochia scoparia). Conditions: Bassia scoparia, pre-emergence, 240 h; for pest or weed control at 125 g/ha: 125 g ai/ha, preemergence, visual rating after approx. 10 d, 0 to 100 scale where 0 is no effect and 100 is complete control; for pest or weed control at 125 g/ha / pest or weed control at 31 g/ha: read-out: Plant response rating, Kochia; for pest or weed control at 31 g/ha: 31 g ai/ha, 0 to 100 scale (0 no effect, 100 complete control). The method, boiled down:
as §1

Assay [3] deals with giant foxtail (Setaria faberii). Conditions: Setaria faberi, pre-emergence, 240 h; for pest or weed control at 125 g/ha: 125 g ai/ha, preemergence, visual rating after approx. 10 d, 0 to 100 scale where 0 is no effect and 100 is complete control; for pest or weed control at 125 g/ha / pest or weed control at 31 g/ha: read-out: Plant response rating, Foxtail, Giant; for pest or weed control at 31 g/ha: 31 g ai/ha, 0 to 100 scale (0 no effect, 100 complete control). The gist of the method: as §1

Assay [4] deals with pigweed (Amaranthus retroflexus). Conditions: Amaranthus retroflexus, pre-emergence, 240 h; for pest or weed control at 125 g/ha: 125 g ai/ha, preemergence, visual rating after approx. 10 d, 0 to 100 scale where 0 is no effect and 100 is complete control; for pest or weed control at 125 g/ha / pest or weed control at 31 g/ha: read-out: Plant response rating, Pigweed; for pest or weed control at 31 g/ha: 31 g ai/ha, 0 to 100 scale (0 no effect, 100 complete control).

The subject of assay [5] is ryegrass, Italian (Italian ryegrass, Lolium multiflorum). The settings on record: Lolium multiflorum, pre-emergence, 240 h; for pest or weed control at 125 g/ha: 125 g ai/ha, preemergence, visual rating after approx. 10 d, 0 to 100 scale where 0 is no effect and 100 is complete control; for pest or weed control at 125 g/ha / pest or weed control at 31 g/ha: read-out: Plant response rating, Ryegrass, Italian; for pest or weed control at 31 g/ha: 31 g ai/ha, 0 to 100 scale (0 no effect, 100 complete control). The gist of the method:
as §1

The test system of assay [6] is ragweed (common ragweed, Ambrosia elatior). The settings on record: Ambrosia artemisiifolia, pre-emergence, 240 h; for pest or weed control at 125 g/ha: 125 g ai/ha, preemergence, visual rating after approx. 10 d, 0 to 100 scale where 0 is no effect and 100 is complete control; for pest or weed control at 125 g/ha / pest or weed control at 31 g/ha: read-out: Plant response rating, Ragweed; for pest or weed control at 31 g/ha: 31 g ai/ha, 0 to 100 scale (0 no effect, 100 complete control). The gist of the method:
as §1

As for `CN1CC[C@H](c2cccc(OC(F)(F)F)c2)[C@@H](C(=O)Nc2ccc(F)c(F)c2F)C1=O` [Compound 808], the pest or weed control at 125 g/ha in assay [1] was found to be 100%; in assay [2], 0%; in assay [3] it was 90%; in assay [4], 0%; in assay [5], 30%; in assay [6], 0%. Besides, the pest or weed control at 31 g/ha stood at 100% in assay [1] (Preemergence); 0% in assay [2] (Preemergence); 70% in assay [3] (Preemergence); 0% in assay [4] (Preemergence); 0% in assay [5] (Preemergence); 0% in assay [6] (Preemergence).
In the case of `CSc1ccccc1NC(=O)[C@H]1C(=O)N(C)CC[C@@H]1c1cccc(OC(F)(F)F)c1` [Compound 809], the pest or weed control at 125 g/ha in assay [1] was determined as 90%; in assay [2] it was 0%; in assay [3], 20%; in assay [4] it was 0%; in assay [5], 0%; in assay [6] it was 0%. Also, the pest or weed control at 31 g/ha is 90% in assay [1] (Preemergence); 0% in assay [2] (Preemergence); 0% in assay [3] (Preemergence); 0% in assay [4] (Preemergence); 0% in assay [5] (Preemergence); 0% in assay [6] (Preemergence).
In the case of `CN1CC[C@H](c2ccc3c(c2)OC(F)(F)O3)[C@@H](C(=O)Nc2ccccc2C(F)(F)F)C1=O` [Compound 811], the pest or weed control at 125 g/ha in assay [1] stood at 40%; in assay [2], 0%; in assay [3], 40%; in assay [4], 0%; in assay [5], 0%; in assay [6], 0%. Besides, the pest or weed control at 31 g/ha in assay [1] (Preemergence), in assay [2] (Preemergence), in assay [3] (Preemergence), in assay [4] (Preemergence), in assay [5] (Preemergence) and in assay [6] (Preemergence) was 0% each time.
For the molecule `CN1C[C@H](c2cccc(S(C)(=O)=O)c2)[C@@H](C(=O)Nc2cccc(F)c2F)C1=O` (racemic) [Compound 777], the pest or weed control at 125 g/ha in assay [1] worked out at 70%; in assay [2], 0%; in assay [3], 80%; in assay [4], 0%; in assay [5], 40%; in assay [6] it was 0%. The pest or weed control at 500 g/ha stood at 100% in assay [1] (500 g ai/ha, Preemergence, visual injury vs untreated controls after approximately 10 d, read-out: Barnyardgrass plant response rating (0 to 100 scale where 0 is no effect and 100 is complete control)); 0% in assay [2] (500 g ai/ha, Preemergence, visual injury vs untreated controls after approximately 10 d, read-out: Kochia plant response rating (0 to 100 scale where 0 is no effect and 100 is complete control)); 100% in assay [3] (500 g ai/ha, Preemergence, visual injury vs untreated controls after approximately 10 d, read-out: Foxtail, Giant plant response rating (0 to 100 scale where 0 is no effect and 100 is complete control)); 40% in assay [4] (500 g ai/ha, Preemergence, visual injury vs untreated controls after approximately 10 d, read-out: Pigweed plant response rating (0 to 100 scale where 0 is no effect and 100 is complete control)); 70% in assay [5] (500 g ai/ha, Preemergence, visual injury vs untreated controls after approximately 10 d, read-out: Ryegrass, Italian plant response rating (0 to 100 scale where 0 is no effect and 100 is complete control)); 0% in assay [6] (500 g ai/ha, Preemergence, visual injury vs untreated controls after approximately 10 d, read-out: Ragweed plant response rating (0 to 100 scale where 0 is no effect and 100 is complete control)).
For `Cc1cc([C@H]2CN(C)C(=O)[C@@H]2C(=O)Nc2ccccc2F)cc(C)c1C` [Compound 797], the pest or weed control at 125 g/ha is 90% in assay [1]; 20% in assay [2]; 90% in assay [3]; 20% in assay [4]; 50% in assay [5]; 0% in assay [6]. In addition, the pest or weed control at 31 g/ha worked out at 80% in assay [1] (Preemergence); 0% in assay [2] (Preemergence); 90% in assay [3] (Preemergence); 0% in assay [4] (Preemergence); 0% in assay [5] (Preemergence); 0% in assay [6] (Preemergence).
